Assay results from US20230058623A1, “NOVEL HETEROARYL-TRIAZOLE COMPOUNDS AS PESTICIDES” (Bayer Aktiengesellschaft, priority 2019, published 2023).

Experiments:
Assay type in all cases: in vivo
[1] = tested on: fall armyworm larvae (Spodoptera frugiperda); assay: Spodoptera frugiperda spray test; conditions: 168 h, application rate 100 g/ha, after 7 days, maize leaf sections
In short: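 Read-out: % larval mortality at day 7, where 100% means all killed and 0% none killed. Compound diluted in water with 1000 ppm emulsifier, sprayed onto Zea mays leaf sections; dried sections then infested with S. frugiperda larvae.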

[2] = tested on: Rhipicephalus (Boophilus) microplus larvae (strain Parkhurst, resistant against synthetic pyrethroids); assay: Rhipicephalus (Boophilus) microplus in-vitro contact test, larval cattle tick; conditions: after 48 hours, read-out: activity (efficacy: larvae dead or moribund); for pest or weed control at 1 µg/cm2, 100 g/ha: application rate 1 μg/cm^2 (=100 g/ha); for pest or weed control at 5 µg/cm2, 500 g/ha: application rate 5 μg/cm^2 (=500 g/ha)
In short: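 Pyrethroid-resistant Parkhurst larvae, 20–50 per tube, were kept 48 h at 27 °C and 85% relative humidity in glass tubes whose inner walls carried a dried acetone film of compound (900 ppm giving 5 μg/cm^2). Dead or moribund larvae, judged by loss of negative geotactic behavior, set percent efficacy.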

[3] = tested on: larvae of the banded cucumber beetle (Diabrotica balteata); assay: Diabrotica balteata spray test; conditions: 168 h, application rate 100 g/ha (=32 μg/well), after 7 days, wheat seeds, read-out: activity (efficacy: seedlings grown)
In short: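 Efficacy (%) read 7 days after infesting treated seedlings with 10-20 banded cucumber beetle larvae, 100% meaning growth as in uninfected untreated control and 0% no growth. Test solutions in water containing 1000 ppm emulsifier were sprayed onto wheat seeds germinated for 1 day on agar.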

[4] = tested on: green peach aphid (Myzus persicae); assay: Myzus persicae oral test; conditions: 120 h, read-out: activity (mortality)
In short: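 Readout: % mortality at day 5, where 100% = all aphids dead and 0% = none dead. Feeding via parafilm membrane over compound in IPL41 medium (33%+15% sugar); mixed-age population. Stock in acetone (1:100 w/w), water-diluted.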

[5] = tested on: green peach aphid (Myzus persicae); assay: Myzus persicae spray test; conditions: foliar, 120 h, after 5 days, Chinese cabbage leaf disks; for mortality at 100 g/ha: application rate 100 g/ha, read-out: activity (mortality); for mortality at 500 g/ha: application rate 500 g/ha
Method: Myzus persicae—Spray Test
(§1) To produce a suitable preparation of active compound, 1 part by weight of active compound is mixed with the stated amount of solvents and is diluted with water, containing an emulsifier concentration of 1000 ppm, to the desired concentration. Further test concentrations are prepared by dilution with emulsifier containing water.
Chinese cabbage (Brassica pekinensis) leaf disks infected with all instars of the green peach aphid (Myzus persicae), are sprayed with a preparation of the active ingredient of the desired concentration.
After 5 days mortality in % is determined. 100% means all aphids have been killed and 0% means none of the aphids have been killed.

[6] = tested on: adult mosquitoes Aedes aegypti strain MONHEIM; assay: Aedes aegypti test (AEDSAE surface treatment & contact assay); conditions: surface concentration 20 mg/m^2, exposure 30 minutes, 24 hours after contact, read-out: efficacy (mortality)
Method: Aedes aegypti Test (AEDSAE Surface Treatment & Contact Assay)
(§2) Solvent: Aceton+2000 ppm rapeseed oil methyl ester (RME)
(§3) In order to produce a sufficient, active ingredient containing solution it is necessary to solve the test compound in the solvent-mix (acetone at 2 mg/ml/RME 2000 ppm). This solution is pipetted onto a glazed tile and after evaporation of the acetone, adult mosquitoes of the species Aedes aegypti strain MONHEIM are placed onto the dried surface. The exposure time is 30 minutes.
(§4) Mortality in percent (%) is determined 24 hours after contact of the insects to the treated surface. 100% mortality means that all tested insects are dead, whereas 0% means that no insect died.

[7] = tested on: adult cat fleas (Ctenocephalides felis); assay: Ctenocephalides felis in-vitro contact test, adult cat flea; conditions: application rate 5 μg/cm^2 (=500 g/ha), after 48 hours, read-out: activity (efficacy: fleas dead or moribund)
In short: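 After 48 h of room-temperature exposure in tubes whose walls carried dried compound residue (5 μg/cm^2, from 900 ppm acetone solution), adult cat fleas (5-10 per tube) were heat-challenged at 45-50° C up to 5 min. Fleas unable to climb away were counted dead or moribund, expressed as % efficacy.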

[8] = tested on: adult flies Musca domestica strain WHO-N; assay: Musca domestica test (MUSCDO surface treatment & contact assay); conditions: 24 hours after contact, read-out: efficacy (mortality); for mortality at 20 mg/m2: surface concentration 20 mg/m^2, exposure 30 minutes
Method: Musca domestica Test (MUSCDO Surface Treatment & Contact Assay)
as §2
as §3, with “flies” for “mosquitoes”, “Musca domestica” for “Aedes aegypti”, “WHO-N” for “MONHEIM”
as §4

[9] = tested on: adult brown dog ticks (Rhipicephalus sanguineus); assay: Rhipicephalus sanguineus in-vitro contact test, adult brown dog ticks; conditions: application rate 5 μg/cm^2 (=500 g/ha), after 48 hours, read-out: activity (efficacy: ticks dead or moribund)
Method: Rhipicephalus sanguineus—In-Vitro Contact Tests with Adult Brown Dog Ticks
9 mg compound is solved in 1 mL acetone and diluted with acetone to the desired concentration. 250 μL of the test solution is filled in 25 mL glass test tubes and homogeneously distributed on the inner walls by rotation and tilting on a shaking device (2 h at 30 rpm). With a compound concentration of 900 ppm, an inner surface of 44.7 cm^2 and a homogeneous distribution, a dose of 5 μg/cm^2 is achieved.
After the solvent has evaporated, each test tube is filled with 5-10 adult brown dog ticks (Rhipicephalus sanguineus), closed with a perforated lid and incubated in a lying position at room temperature and relative humidity. After 48 hours efficacy is determined. The ticks are patted on the ground of the tubes and are incubated on a heating plate at 45-50° C. for at most 5 minutes. Immotile or uncoordinated moving ticks, which are not able to escape the heat by climbing upwards, are marked as dead or moribund.
An efficacy of 100% means all ticks are dead or moribund; 0% means no ticks are dead or moribund.

[10] = tested on: larvae of the southern green stink bug (Nezara viridula); assay: Nezara viridula spray test; conditions: 96 h, after 4 days, barley plants; for mortality at 500 g/ha: application rate 500 g/ha, read-out: activity (mortality); for mortality at 100 g/ha: application rate 100 g/ha
Method: Nezara viridula—Spray Test
as §1, with “solvent,” for “solvents”, “and the concentrate” for “and”
Barley plants (Hordeum vulgare) are sprayed with a test solution containing the desired concentration of the active ingredient and are infested with larvae of the southern green stink bug (Nezara viridula).
After 4 days mortality in % is determined. 100% means all the stink bugs have been killed; 0% means none of the stink bugs have been killed.

[11] = tested on: adult engorged female ticks (Rhipicephalus microplus); assay: Rhipicephalus (Boophilus) microplus injection test; conditions: 168 h, application rate 4 μg/tick, egg deposition after 7 days, read-out: activity (efficacy: infertile eggs)
Method: Rhipicephalus (Boophilus) microplus—Injection Test
Solvent: dimethyl sulfoxide
To produce a suitable preparation of active compound, 10 mg of active compound are dissolved in 0.5 mL solvent, and the concentrate is diluted with solvent to the desired concentration.
Five adult engorged female ticks (Rhipicephalus microplus) are injected with 1 μL compound solution into the abdomen. The ticks are transferred into replica plates and incubated in a climate chamber.
After 7 days egg deposition of fertile eggs is monitored. Eggs where fertility is not visible are stored in a climate chamber till hatching after about 42 days. An efficacy of 100% means all eggs are infertile; 0% means all eggs are fertile.

Row | SMILES | mortality at 100 g/ha [1] | pest or weed control at 1 µg/cm2, 100 g/ha [2] | pest or weed control at 5 µg/cm2, 500 g/ha [2] | pest or weed control at 32 µg/disc, 100 g/ha [3] | mortality at 4 ppm [4] | mortality at 100 g/ha [5] | mortality at 20 mg/m2 [6] | pest or weed control at 5 µg/cm2 [7] | mortality at 20 mg/m2 [8] | pest or weed control at 5 µg/cm2, 500 g/ha [9] | mortality at 500 g/ha [10] | mortality at 500 g/ha [5] | pest or weed control at 0.004 mg [11] | mortality at 100 g/ha [10] | mortality at 4 mg/m2 ([8]; surface concentration 4 mg/m^2, exposure 30 minutes)
1 | CON(C)C(=O)c1ccc(-n2nc(C)nc2[C@H](C)NC(=O)c2cc(C(F)(F)F)cc(C(F)(F)F)c2)nc1 [Example I-49] | 100% | 100% | 100% | 100% | 100% | 90% | 80 to 100% | – | – | – | – | – | – | – | –
2 | Cc1nc([C@H](C)NC(=O)c2cc(C(F)(F)F)cc(C(F)(F)F)c2)n(-c2ccc(C(=O)N3CCOC[C@H]3C)cn2)n1 [Example I-72] | 100% | 100% | 100% | 100% | – | – | – | 100% | 80 to 100% | 100% | – | – | – | – | –
3 | Cc1nc([C@H](C)NC(=O)c2cc(C(F)(F)F)cc(C(F)(F)F)c2)n(-c2ccc(C(=O)N3CCOC[C@@H]3C)cn2)n1 [Example I-68] | 100% | 100% | 100% | 100% | – | – | 80 to 100% | 100% | – | – | – | – | – | – | –
4 | C[C@@H]1CN(C(=O)c2ccc(-n3nc(C4CC4)nc3[C@H](C)NC(=O)c3cc(C(F)(F)F)cc(C(F)(F)F)c3)nc2)C[C@H](C)O1 [Example I-89] | 100% | 100% | 100% | 100% | – | – | – | 100% | 80 to 100% | 100% | 100% | – | – | – | –
5 | C[C@H](NC(=O)c1cc(C(F)(F)F)cc(C(F)(F)F)c1)c1ncnn1-c1ccc(C(=O)NC2CS(=O)(=O)C2)cn1 [Example I-63] | – | 90% | 90% | 100% | 100% | 90% | 80 to 100% | 100% | – | – | – | 90% | – | – | –
6 | C[C@H](NC(=O)c1cc(C(F)(F)F)cc(C(F)(F)F)c1)c1ncnn1-c1ccc(C(=O)NC2CCOC2)cn1 (some centres unmarked) [Example I-61] | 100% | 90% | 90% | – | 100% | – | 80 to 100% | – | – | – | 100% | 90% | – | – | –
7 | C[C@H](NC(=O)c1cc(C(F)(F)F)cc(C(F)(F)F)c1)c1ncnn1-c1ccc(C(=O)N2CC3(COC3)C2)cn1 [Example I-12] | 100% | 100% | 100% | – | 100% | – | 80 to 100% | 90% | – | 100% | – | – | 100% | – | –
8 | C[C@H](NC(=O)c1cc(C(F)(F)F)cc(C(F)(F)F)c1)c1ncnn1-c1ccc(C(=O)N2CCOC[C@@H]2C)cn1 [Example I-67] | 100% | 100% | 100% | 100% | 100% | – | 80 to 100% | 100% | 80 to 100% | – | – | – | – | – | –
9 | C[C@H](NC(=O)c1cc(C(F)(F)F)cc(C(F)(F)F)c1)c1ncnn1-c1ccc(C(=O)N(C)C2COC2)cn1 [Example I-112] | 100% | 100% | 100% | – | 70% | 100% | 80 to 100% | 90% | 80 to 100% | – | – | – | – | 100% | –
10 | CON(C)C(=O)c1ccc(-n2ncnc2[C@H](C)NC(=O)c2cc(C(F)(F)F)cc(C(F)(F)F)c2)nc1 [Example I-48] | 100% | 100% | 100% | 100% | 100% | – | 80 to 100% | – | – | – | – | – | – | – | –
11 | Cc1nc([C@H](C)NC(=O)c2cc(C(F)(F)F)cc(C(F)(F)F)c2)n(-c2ccc(C(=O)N3CCO[C@H](C)C3)cn2)n1 [Example I-70] | 100% | 100% | 100% | 100% | 100% | 90% | 80 to 100% | 100% | 80 to 100% | 100% | – | – | – | 90% | 80 to 100%
